Assay results published in PubChem BioAssay AID1421 (Emory University Molecular Libraries Screening Center, 2008).
Calls of active or inactive are those of the source. The rule behind the calls is not given here.

biological target: Prostaglandin E2 receptor EP2 subtype (Homo sapiens) (UniProt P43116); experiment: compounds shifting PGE2 potency at EP2 – cell-based, human EP2, PGE2 EC50 shift, dose response (AID 1421); settings: EP2-expressing cells, PGE2 EC50 shift by compound
Sequence (P43116 whole entry, looked up): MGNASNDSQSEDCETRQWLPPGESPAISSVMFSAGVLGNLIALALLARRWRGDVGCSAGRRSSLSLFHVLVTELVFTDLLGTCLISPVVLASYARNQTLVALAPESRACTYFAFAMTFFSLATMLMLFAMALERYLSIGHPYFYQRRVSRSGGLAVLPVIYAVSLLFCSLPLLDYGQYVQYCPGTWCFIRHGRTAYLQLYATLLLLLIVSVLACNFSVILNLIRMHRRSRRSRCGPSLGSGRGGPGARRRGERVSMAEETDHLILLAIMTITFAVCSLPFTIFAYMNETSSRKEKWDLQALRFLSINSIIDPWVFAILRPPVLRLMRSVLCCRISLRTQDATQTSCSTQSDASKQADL

Q: How did the outcome turn out when `Cc1ccccc1C(=O)Nc1ccccc1N1CCCCC1` was run?
A: The outcome was “active”.

Q: `CCSc1cc(N2CCOCC2)nc(-c2ccccc2)n1` was tested. Which outcome did it give?
A: Its outcome is “active”.

Q: How did the outcome turn out when `COc1ccc(S(=O)(=O)N2c3cc(C)ccc3OCC2C(C)(C)C)cc1` (centres undefined) was run?
A: Its outcome is “active”.

Q: For `C=CCSc1nc2ccccc2n1S(=O)(=O)c1ccc(Cl)cc1`, which outcome is on record?
A: The outcome was “active”.

Q: With `CCOC(=O)c1c(NC(=O)c2ccco2)sc2c1CCCCC2` as the compound, how does the outcome read?
A: Its outcome is “active”.

Q: Which outcome does the source give for `CCc1ccccc1NC1c2ccccc2C(=O)N1c1cc(C)ccn1` (centres undefined) here?
A: The outcome was “active”.

Q: Which outcome does the source give for `CCSc1nc2sc3c(c2c(=O)n1CC)CC(C)(C)OC3` here?
A: The outcome was “active”.

Q: How did the outcome turn out when `OC(COc1ccccc1)Cn1c2ccccc2c2ccccc21` (centres undefined) was run?
A: Its outcome is “active”.

Q: How did the outcome turn out when `COc1nc(-c2ccccc2)nnc1-c1ccccc1` was run?
A: The outcome was “active”.

Q: `O=C(Nc1ccccc1Sc1ccccc1)c1ccc(F)cc1` was tested. Which outcome did it give?
A: Its outcome is “active”.

Q: For `CCCSc1ncnc2sc(C)c(C)c12`, which outcome is on record?
A: The outcome was “active”.

Q: For `COc1ccc(-c2cc(C(F)(F)F)nc(N3CCCCC3)n2)cc1OC`, which outcome is on record?
A: The outcome was “active”.

Q: Which outcome does the source give for `O=C(CSc1nnc(-c2ccc(Cl)cc2)n1Cc1ccco1)c1cccs1` here?
A: The outcome was “active”.

same assay, conditions: EP2-expressing cells, PGE2 EC50 shift by compound; measured here: PGE2 EC50 at 6.7 uM compound

Q: With `c1ccc(Cc2nc3ccccc3n2Cc2ccccc2)cc1` as the compound, how does the PGE2 EC50 with compound read?
A: The PGE2 EC50 with compound was 0.81 nM.

Q: With `CCOC(=O)Cn1c(=S)[nH]c2c(oc3ccc(Cl)cc32)c1=O` as the compound, how does the PGE2 EC50 with compound read?
A: The PGE2 EC50 with compound was 2.77 nM.

Q: With `COc1c2c(cc3occ(-c4ccc5c(c4)OCO5)c(=O)c13)OC(C)(C)C=C2` as the compound, how does the PGE2 EC50 with compound read?
A: Its PGE2 EC50 with compound is 1.07 nM.

Q: Which PGE2 EC50 with compound does the source give for `CC(OC(=O)c1oc2ccccc2c1COc1ccccc1)C(=O)NC(N)=O` (centres undefined) here?
A: The PGE2 EC50 with compound was 2.83 nM.

Q: How did the PGE2 EC50 with compound turn out when `CSc1nc(Oc2ccc(F)cc2)c2ccccc2n1` was run?
A: Its PGE2 EC50 with compound is 0.61 nM.

Q: `S=c1[nH]cc(-c2ccccc2)n1-c1ccccc1` was tested. Which PGE2 EC50 with compound did it give?
A: Its PGE2 EC50 with compound is 1.48 nM.

Q: Which PGE2 EC50 with compound does the source give for `CC1(C)CC2CC(C)(CN2c2ncnc3ccc(Br)cc23)C1` (centres undefined) here?
A: The PGE2 EC50 with compound was 1.52 nM.

Q: For `CSc1nnc(-c2ccc(F)cc2)o1`, which PGE2 EC50 with compound is on record?
A: Its PGE2 EC50 with compound is 1.71 nM.

Q: `O=C(c1ccc(Cl)cc1)c1oc2ccccc2c1CS(=O)c1ccc(Cl)cc1` (centres undefined) was tested. Which PGE2 EC50 with compound did it give?
A: Its PGE2 EC50 with compound is 0.88 nM.

Q: How did the PGE2 EC50 with compound turn out when `O=c1c2ccccc2n(Cc2ccc(Cl)cc2)c(=O)n1Cc1ccco1` was run?
A: The PGE2 EC50 with compound was 0.82 nM.

Q: Which PGE2 EC50 with compound does the source give for `COc1ccccc1/C=N/N(C(C)=O)c1nc(-c2ccc(F)cc2)cs1` here?
A: Its PGE2 EC50 with compound is 1.1 nM.

Q: With `c1ccc(Cc2nnc(Sc3ccccc3)c3ccccc23)cc1` as the compound, how does the PGE2 EC50 with compound read?
A: Its PGE2 EC50 with compound is 2.76 nM.

Q: For `CC1(C)Oc2ccc(C(=O)N3CCOCC3)cc2N(CC(=O)N2CCOCC2)C1=O`, which PGE2 EC50 with compound is on record?
A: Its PGE2 EC50 with compound is 1.69 nM.

Q: How did the PGE2 EC50 with compound turn out when `Cc1ccccc1C(=O)Nc1ccccc1N1CCCCC1` was run?
A: Its PGE2 EC50 with compound is 1.41 nM.

Q: With `CCC1Oc2ccccc2N(Cc2ccccc2C)C1=O` (centres undefined) as the compound, how does the PGE2 EC50 with compound read?
A: The PGE2 EC50 with compound was 2.7 nM.

Q: Which PGE2 EC50 with compound does the source give for `Cc1ccc(S(=O)(=O)c2c(C)nn(-c3ccccc3)c2OC(=O)c2ccco2)cc1` here?
A: The PGE2 EC50 with compound was 0.71 nM.

Q: With `OCCCNc1nc(-c2ccc(Br)cc2)nnc1-c1ccc(Cl)cc1` as the compound, how does the PGE2 EC50 with compound read?
A: The PGE2 EC50 with compound was 1.42 nM.

Q: For `CC(C)c1cc(=O)oc2c3c4c(cc12)CCCN4CCC3`, which PGE2 EC50 with compound is on record?
A: The PGE2 EC50 with compound was 1.15 nM.

Q: Which PGE2 EC50 with compound does the source give for `CCOC(=O)CN(C(=O)CSc1nnc(Cc2ccccc2)n1-c1ccc(C)cc1)c1ccccc1` here?
A: Its PGE2 EC50 with compound is 1.48 nM.

Q: For `CCSc1cc(N2CCOCC2)nc(-c2ccccc2)n1`, which PGE2 EC50 with compound is on record?
A: The PGE2 EC50 with compound was 1.02 nM.

Q: Which PGE2 EC50 with compound does the source give for `CC1=CC2C(CC1=O)C(C)=CCC2C(C)C` (centres undefined) here?
A: Its PGE2 EC50 with compound is 0.86 nM.

Q: How did the PGE2 EC50 with compound turn out when `Cc1ccc(-c2csc(Nc3ccc(C(=O)O)cc3)[n+]2Cc2ccccc2)cc1` was run?
A: The PGE2 EC50 with compound was 0.77 nM.

Q: How did the PGE2 EC50 with compound turn out when `O=C(COc1ccccc1)Nc1ccccc1Oc1ccccc1` was run?
A: The PGE2 EC50 with compound was 1.41 nM.

Q: `COC(=O)c1cc2ccsc2n1Cc1cccc(F)c1` was tested. Which PGE2 EC50 with compound did it give?
A: The PGE2 EC50 with compound was 0.95 nM.

Q: `FC(F)(F)c1cccc(-c2cc3ccccc3nc2N2CCCC2)c1` was tested. Which PGE2 EC50 with compound did it give?
A: The PGE2 EC50 with compound was 1.36 nM.

Q: How did the PGE2 EC50 with compound turn out when `Cc1ccc(N(CC(=O)N/N=C/c2ccc(OC3CSC3)cc2)S(=O)(=O)c2ccccc2)cc1` was run?
A: The PGE2 EC50 with compound was 1.01 nM.

Q: `O=C(/C(=C/O)N=Nc1ccccc1)c1cccs1` was tested. Which PGE2 EC50 with compound did it give?
A: Its PGE2 EC50 with compound is 1.19 nM.

Q: For `Cc1cc(NC(=O)CN2CCCC(C)C2)n(-c2nc3ccccc3s2)n1` (centres undefined), which PGE2 EC50 with compound is on record?
A: The PGE2 EC50 with compound was 0.75 nM.

Q: How did the PGE2 EC50 with compound turn out when `CSc1nc(Sc2ccccc2)c2ccccc2n1` was run?
A: Its PGE2 EC50 with compound is 1.6 nM.

Q: Which PGE2 EC50 with compound does the source give for `Cc1noc(C)c1CSc1nc2ccccc2c(=O)n1-c1ccc(Cl)cc1` here?
A: Its PGE2 EC50 with compound is 0.83 nM.

Q: For `Cc1ccc(C(=O)O)cc1NC(=S)NC(=O)c1ccc(-c2ccccc2)cc1`, which PGE2 EC50 with compound is on record?
A: Its PGE2 EC50 with compound is 0.83 nM.

Q: How did the PGE2 EC50 with compound turn out when `Cc1ccc(Cn2ccc(=O)c(OCc3c(Cl)cccc3Cl)c2C)cc1` was run?
A: Its PGE2 EC50 with compound is 1.18 nM.

Q: Which PGE2 EC50 with compound does the source give for `c1cncc(-c2nc(N3CCCCCC3)c3ccccc3n2)c1` here?
A: The PGE2 EC50 with compound was 0.91 nM.

Q: How did the PGE2 EC50 with compound turn out when `Cc1nn(Cc2c(Cl)cccc2Cl)c(C)c1C(=O)NCc1ccc(C)n1C` was run?
A: Its PGE2 EC50 with compound is 1.18 nM.

Q: Which PGE2 EC50 with compound does the source give for `COc1ccc(S(=O)(=O)N2c3cc(C)ccc3OCC2C(C)(C)C)cc1` (centres undefined) here?
A: The PGE2 EC50 with compound was 0.75 nM.

Q: How did the PGE2 EC50 with compound turn out when `S=c1[nH]nc(C2CCCCC2)n1Cc1ccccc1` was run?
A: The PGE2 EC50 with compound was 1.02 nM.

Q: With `C=CCSc1nc2ccccc2n1S(=O)(=O)c1ccc(Cl)cc1` as the compound, how does the PGE2 EC50 with compound read?
A: Its PGE2 EC50 with compound is 0.85 nM.

Q: How did the PGE2 EC50 with compound turn out when `c1ccc(-c2csc3ncnc(N4CCc5ccccc5C4)c23)cc1` was run?
A: Its PGE2 EC50 with compound is 1.1 nM.

Q: How did the PGE2 EC50 with compound turn out when `CCOC(=O)c1c(NC(=O)c2ccco2)sc2c1CCCCC2` was run?
A: Its PGE2 EC50 with compound is 0.87 nM.

Q: With `CCOc1nc(-c2ccccc2O)nc2ccccc12` as the compound, how does the PGE2 EC50 with compound read?
A: The PGE2 EC50 with compound was 1.1 nM.

Q: For `COC(=O)c1[nH]c2ccccc2c1NS(=O)(=O)c1ccc(F)c(C)c1`, which PGE2 EC50 with compound is on record?
A: Its PGE2 EC50 with compound is 0.88 nM.

Q: Which PGE2 EC50 with compound does the source give for `Cc1ccc(CN2C(=O)CN=C(c3ccccc3)c3ccccc32)cc1` here?
A: Its PGE2 EC50 with compound is 1.23 nM.

Q: Which PGE2 EC50 with compound does the source give for `O=S(=O)(c1ccc(F)cc1)c1snnc1-c1ccccc1` here?
A: The PGE2 EC50 with compound was 0.89 nM.

Q: `COC(=O)c1c(NC(=O)Cc2cccs2)sc(C)c1C` was tested. Which PGE2 EC50 with compound did it give?
A: The PGE2 EC50 with compound was 0.88 nM.

Q: With `CCc1ccccc1NC1c2ccccc2C(=O)N1c1cc(C)ccn1` (centres undefined) as the compound, how does the PGE2 EC50 with compound read?
A: Its PGE2 EC50 with compound is 2.49 nM.

Q: For `CCCCc1nc(N2CCOCC2)c(C#N)c2c1CCCC2`, which PGE2 EC50 with compound is on record?
A: The PGE2 EC50 with compound was 0.98 nM.
